These results are taken from publication PMC9879991, “Biomolecular condensates formed by designer minimalistic peptides” (Nature Communications, 2023).

Data set [1] can be described thus: Phase diagram in tris buffer: pH at which turbidity (LLPS) appears vs peptide concentration. The data set is classed as physicochemical. To be noted: 0.2 M NaCl, room temperature; for pH at which turbidity (LLPS) appears: 20 mM tris, turbidity A500. An excerpt:
We sought to design a library of LLPS-promoting peptide building blocks which form synthetic biomolecular condensates with tunable chemical composition and physical properties. We hypothesized that minimalistic variants of protein low complexity domains (LCDs) will self-assemble into liquid droplets through LLPS. Specifically, we envisioned that in order to keep the sequence length relatively short, the peptide composition should include high content of aromatic and basic amino acids that can interact through π–π or cation–π interactions. To test this hypothesis, we designed a primary sequence that contains various LLPS-promoting motifs. Inspired by LCDs of ribonucleoproteins (RNPs) and IDPs that are rich in arginine-glycine (RG) dyad or RGG triad repeats, we incorporated three repeats of an RG dyad (Fig. 1a), where glycine (Gly) provides flexibility and arginine (Arg) promotes electrostatic interactions with the terminal carboxylic group, cation- π or π interactions with aromatic amino acids (Fig. 1a). While both lysine (Lys) and Arg have basic side chain groups, the guanidine group of Arg delocalizes the charge due to the π bonded system and thus can promote more versatile binding modes compared to Lys, through cation–π and π–π interactions. Thus, considering that the Arg side chain can interact with side chains of aromatic amino acids, we incorporated tryptophan (Trp) and tyrosine (Tyr) into the peptide sequence at a 1:1 stoichiometry with Arg, with aromatic amino acids positioned at both ends of the sequence to enhance π–π stacking interactions. Finally, we considered the elastin-like polypeptide (ELP) repeating motif VPGXG. This pentapeptide sequence is a common LLPS-promoting motif used in engineered ordered/disordered polypeptides, where X can be any amino acid except proline (Pro), and a hydrophobic amino acid at this position promotes coacervation[39],[40]. […] Building on these previous findings, we incorporated the sequence WPGVG, thus obtaining the 14-mer peptide WGRGRGRGWPGVGY termed WGR-1 (Figs. 1a, 2a). WGR-1 forms droplets by self-coacervation at neutral pH in the presence of 0.2 M NaCl, which reduces the electrostatic repulsion of the basic peptide (Fig. 1b). We created a phase diagram of WGR-1 as a function of pH and peptide concentration in tris buffer by gradually increasing the pH and monitoring LLPS, as indicated by appearance of sample turbidity (Fig. 2b), where all experiments performed at room temperature. As expected, increasing peptide concentration decreased the pH in which visible turbidity and droplets are observed, where the critical LLPS concentration is 8 mM. To confirm that the turbidity is a result of LLPS and droplet formation rather than aggregation, we used bright field laser scanning confocal microscopy (Fig. 2c).
Fig. 2 Peptide sequence controls LLPS propensity and droplet formation. a Table of the designed peptide sequences. b Phase diagram of the peptides as a function of peptide concentration and pH, in tris buffer with 0.2 M NaCl, at room temperature. […] Source data are provided as a Source Data file. c Confocal microscopy bright field images of peptide liquid droplets formed at a concentration of 20 mM in Tris buffer at pH 8 with 0.2 M NaCl. Scale bars = 20 μm. Inset: macroscopic images of the peptide solutions. ‘Source data are provided as a Source Data file. TEXT PRINTED IN THE PICTURE: (b) WGR-1: LLPS | (b) WGR-2: No LLPS | (b) WGR-3: LLPS | (b) WGR-4: LLPS | (b) WGR-5: LLPS | (b) WGK: No LLPS DOUBTS OF THE COPYIST ABOUT THIS PICTURE: Panel b: "LLPS" / "No LLPS" are class labels printed inside the phase diagrams, with no numbers. In the diagrams with a curve, "LLPS" marks a region of the plot. / Panel c: the handwritten labels on the vials in the insets cannot be read with certainty and were left out. […]

No end group written: not given here.

For WGRGRGRGWPGVGY [WGR-1], the differential NaCl-induced change, largest (residue P10) was found to be 5.5 Hz. Further, the “pH at which turbidity (LLPS) appears” value in data set [1] (8 mM peptide, mean of n=3) is 8.483. In addition, in data set [1] (8 mM peptide, replicate 1), the “pH at which turbidity (LLPS) appears” value is 8.43. Also, the “pH at which turbidity (LLPS) appears” value in data set [1] (8 mM peptide, replicate 2) came to 8.47. In addition, the “pH at which turbidity (LLPS) appears” value in data set [1] (8 mM peptide, replicate 3) worked out at 8.55. Also, in data set [1] (10 mM peptide, mean of n=3), the “pH at which turbidity (LLPS) appears” value is listed as 7.88. Also, the “pH at which turbidity (LLPS) appears” value in data set [1] (10 mM peptide, replicate 1) came to 7.84. Further, the “pH at which turbidity (LLPS) appears” value in data set [1] (10 mM peptide, replicate 2) came to 7.86. Besides, the “pH at which turbidity (LLPS) appears” value in data set [1] (10 mM peptide, replicate 3) was determined as 7.94. Besides, the “pH at which turbidity (LLPS) appears” value in data set [1] (15 mM peptide, mean of n=3) came out at 7.483. In data set [1] (15 mM peptide, replicate 1), the “pH at which turbidity (LLPS) appears” value is reported as 7.45. Moreover, in data set [1] (15 mM peptide, replicate 2), the “pH at which turbidity (LLPS) appears” value is listed as 7.51. For the same sequence, the “pH at which turbidity (LLPS) appears” value in data set [1] (15 mM peptide, replicate 3) is on record as 7.49. For the same sequence, in data set [1] (20 mM peptide, mean of n=3), the “pH at which turbidity (LLPS) appears” value is given as 7.12. The “pH at which turbidity (LLPS) appears” value in data set [1] (20 mM peptide, replicate 1) was found to be 7.13. The “pH at which turbidity (LLPS) appears” value in data set [1] (20 mM peptide, replicate 2) was determined as 7.08. Also, in data set [1] (20 mM peptide, replicate 3), the “pH at which turbidity (LLPS) appears” value is on record as 7.15. In data set [1] (30 mM peptide, mean of n=3), the “pH at which turbidity (LLPS) appears” value is 6.85. The “pH at which turbidity (LLPS) appears” value in data set [1] (30 mM peptide, replicate 1) amounted to 6.82. Besides, the “pH at which turbidity (LLPS) appears” value in data set [1] (30 mM peptide, replicate 3) was 6.88. The “critical LLPS concentration” value in data set [1] (tris buffer, lowest of 5-30 mM at which turbidity/droplets form) was 8 mM.
